# Experimental data from patent US20150125546A1, “COMBINATION THERAPY FOR TREATING PULMONARY HYPERTENSION” (Gilead Sciences, Inc., priority 2013, published 2015).
# Where two headings read alike, the source gives them in different places. Ends that are not written are not given here.
# Legend:
# [1] = tested on: cGMP synthesis in isolated intrapulmonary arteries; experiment: cGMP content in isolated rat intrapulmonary arteries; conditions: for ET-1-stimulated cGMP synthesis in the presence of bosentan / ET-1 plus riociguat-stimulated cGMP synthesis in the presence of bosentan: 100 nM bosentan; for ET-1-stimulated cGMP synthesis in the presence of bosentan: 8 nM ET-1; for ET-1 plus riociguat-stimulated cGMP synthesis in the presence of bosentan: 8 nM ET-1 plus 30 nM riociguat
# [2] = tested on: endothelin-1 (ET-1)-constricted intrapulmonary arteries isolated from rats; experiment: relaxation of ET-1-induced contraction of isolated rat intrapulmonary arterial rings; conditions: for relaxation of ET-1-constricted intrapulmonary arteries: 8 nM ET-1; for effect on potency of the other drug to relax ET-1 constricted rat pulmonary arteries: qualitative (FIG. 6, FIG. 7)
# ETA receptor = molecular target: T1, ETA receptor (Homo sapiens, UniProt P25101); conditions: background statement; read-out: affinity for the ETA receptor; cited from earlier work
# T1 sequence (P25101 21-427): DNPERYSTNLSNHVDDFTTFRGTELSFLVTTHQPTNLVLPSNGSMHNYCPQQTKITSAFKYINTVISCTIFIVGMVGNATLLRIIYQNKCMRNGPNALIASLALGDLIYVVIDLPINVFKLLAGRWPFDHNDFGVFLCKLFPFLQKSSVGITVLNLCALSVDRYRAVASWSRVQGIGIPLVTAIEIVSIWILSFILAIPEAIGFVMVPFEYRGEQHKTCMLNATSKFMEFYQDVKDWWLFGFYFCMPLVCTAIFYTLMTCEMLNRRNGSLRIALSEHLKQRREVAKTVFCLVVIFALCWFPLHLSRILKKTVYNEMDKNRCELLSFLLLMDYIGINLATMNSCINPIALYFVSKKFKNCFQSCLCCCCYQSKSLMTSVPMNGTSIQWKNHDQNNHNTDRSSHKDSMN
# [3] = tested on: phosphorylation of MLC2 by MLCK; experiment: ET-1-stimulated phosphorylation of MLC2 by MLCK in rat pulmonary arteries; conditions: qualitative (FIG. 10)
# Text: Further, ambrisentan and riociguat attenuated ET-1 stimulated phosphorylation of MLC2 by MLCK in rat pulmonary arteries (FIG. 10).
# [4] = 30 nM alone, another run (FIG. 3, FIG. 4)
# [5] = 30 nM alone, first run (FIG. 2), mean±SEM
compound,measurement,setting,value
COC(=O)[C@@H](N)CCCN=C(N)N[N+](=O)[O-].Cl [L-NAME],blocking of ET-1 and its combination with riociguat to stimulate cGMP synthesis,[1],significantly blocked
"COC(c1ccccc1)(c1ccccc1)[C@H](Oc1nc(C)cc(C)n1)C(=O)O [ambrisentan, (2S)-2-[(4,6-dimethylpyrimidin-2-yl)oxy]-3-methoxy-3,3-diphenylpropanoic acid]",relaxation of ET-1-constricted intrapulmonary arteries,"[2]; 10 nM alone, another run (FIG. 3), mean±SEM",28.5±6.4%
same,relaxation of ET-1-constricted intrapulmonary arteries,"[2]; 10 nM alone, first run (FIG. 2), mean±SEM",29±6%
same,effect on potency of the other drug to relax ET-1 constricted rat pulmonary arteries,[2],increased the potency of riociguat
same,blocking of ET-1 and its combination with riociguat to stimulate cGMP synthesis,[1]; qualitative,"but not ambrisentan, significantly blocked"
same,Ki,ETA receptor,~0.012 nM
same,effect on ET-1 stimulated phosphorylation of MLC2 by MLCK,[3],attenuated
COc1ccccc1Oc1c(NS(=O)(=O)c2ccc(C(C)(C)C)cc2)nc(-c2ncccn2)nc1OCCO [bosentan],relaxation of ET-1-constricted intrapulmonary arteries,"[2]; 100 nM alone, another run (FIG. 4)",19.8%
same,relaxation of ET-1-constricted intrapulmonary arteries,"[2]; 100 nM alone, first run (FIG. 2), mean±SEM",23±3%
same,ET-1-stimulated cGMP synthesis in the presence of bosentan,[1]; another run (FIG. 9),36 pmol/g tissue
same,ET-1-stimulated cGMP synthesis in the presence of bosentan,[1]; first run,21±3 pmol/g tissue
same,ET-1 plus riociguat-stimulated cGMP synthesis in the presence of bosentan,[1]; another run (FIG. 9),97 pmol/g tissue
same,ET-1 plus riociguat-stimulated cGMP synthesis in the presence of bosentan,[1]; first run,37±3 pmol/g tissue
same,blocking of ET-1 and its combination with riociguat to stimulate cGMP synthesis,[1]; qualitative,significantly blocked
CCCNS(=O)(=O)Nc1ncnc(OCCOc2ncc(Br)cn2)c1-c1ccc(Br)cc1 [macitentan],relaxation of ET-1-constricted intrapulmonary arteries,[2]; [4],30.1%
same,relaxation of ET-1-constricted intrapulmonary arteries,[2]; [5],30±6%
"COC(=O)N(C)c1c(N)nc(-c2nn(Cc3ccccc3F)c3ncccc23)nc1N [riociguat, methyl (4,6-diamino-2-(1-(2-fluorobenzyl)-1H-pyrazolo[3,4-b]pyridin-3-yl)pyrimidin-5-yl)(methyl)carbamate]",relaxation of ET-1-constricted intrapulmonary arteries,[2]; [4],23.2±6.5%
same,relaxation of ET-1-constricted intrapulmonary arteries,[2]; [5],23±3%
same,effect on potency of the other drug to relax ET-1 constricted rat pulmonary arteries,[2],increased the potency of ambrisentan
same,content of cGMP,[1]; 10 nM ET-1 and 30 nM riociguat in combination,96±7 pmol/g tissue
same,content of cGMP,[1]; 30 nM riociguat alone,34±5 pmol/g tissue
same,effect on ET-1-stimulated cGMP production,[1]; qualitative (FIG. 8),potentiated ET-1-stimulated cGMP production
same,effect on ET-1 stimulated phosphorylation of MLC2 by MLCK,[3],attenuated
"Endothelin-1 (CSCSSLMDKECVYFCHLDIIW; ends and bridges not checked; cysteine pairing not given here; UniProt P05305 53-73, looked up) [ET-1]",content of cGMP,[1]; 10 nM ET-1 alone,37±4 pmol/g tissue
